Measurements taken from patent US20220160779A1, “COMPOSITION FOR PROMOTING CARTILAGE TISSUE REGENERATION” (National University Corporation Tokyo Medical and Dental …, priority 2019, published 2022).

Experiments:
C57BL/6J mice = test: Medial meniscus anterior 1/2 resection model; assay type: in vivo, mouse
Description: Twenty male C57BL/6J mice (8 weeks old, weight: about 25 g) were used for this study (5 mice in each group. ORIENTAL YEAST Co., Ltd. Tokyo, Japan). After anesthesia by isoflurane inhalation, a straight incision was made in the left anterior knee, and the anterior central side of the joint capsule was cut. The patellar tendon was then dislocated laterally to expose the anterior corner of the medial meniscus (see Hiyama K. et al, J Orthop Res., 2017, 35(9), pp. 1958 to 1965). The anterior corner of the meniscus was cut and dislocated anteriorly using forceps. The medial meniscus was cut perpendicularly at the medial collateral ligament, and the anterior portion of the medial meniscus was resected in a microscopic operation using a surgical microscope. The skin was closed in layers with non-absorbable sutures. Note that the right knee was subjected to sham surgery. In addition, the mice were kept under a 12-hour light/dark cycle with free movement, free feeding, and drinking water.
Recombinant human Activin A (42 ng/6 μL in PBS) and/or rh PDGF-AA (174 ng/6 μL in PBS) was injected intra-articularly on postoperative day 7 (see Hoshino T. et al., BMC Musculoskelet Disord., 2018, 19(1): 291). […]
Tissue samples were fixed in 4% paraformaldehyde for 3 to 4 days and subjected to decalcification in 20% ethylenediaminetetraacetic acid (EDTA) solution for 21 days. Then, they were embedded in paraffin wax. The specimens were then cut to a 5 μm thickness in the sagittal plane and stained with safranin O/Fast Green or hematoxylin/eosin (H&E) to histologically evaluate meniscus regeneration.
A modified Pauli's score system was used to histologically quantify meniscus regeneration (see Hiyama K. et al, J Orthop Res. 2017, 35(9), pp. 1958 to 1965). Histological evaluation was performed by two investigators in a blind manner.
Type I and II collagen immunostaining was performed as described in Tsuji K. et al, Cell Transplant., 2017, 26(6), pp. 1089 to 1102. That is, sections were subjected to deparaffinization with xylene (Wako Pure Chemical Industries, Tokyo, Japan), rehydrated stepwise with alcohol, and saturated with phosphate buffered saline (PBS). For type II collagen staining, the samples were pretreated with 50 mM Tris-HCl buffer (Wako Pure Chemical Industries) containing 0.4 mg/ml Proteinase K (Dako, Agilent Technologies, Santa Clara, Calif., USA) for 10 min. For type I collagen staining, no digestion with Proteinase K was performed.
Next, the cells were treated with methanol containing 0.3% hydrogen peroxide for 30 minutes to suppress the activity of endogenous peroxidase. As primary antibodies, anti-type I collagen antibody (1:200 dilution; Abcam cat. #ab34712, Cambridge, UK) or anti-type II collagen antibody (1:1000 dilution; Abcam […], Cambridge, UK) were added to the sections and incubated at 4° C. overnight. Then, the sections were rinsed with 0.1% PBS-Triton X-100 (MP Biomedicals Inc., Solon, Ohio, USA) and incubated with secondary antibodies diluted 1:200 [Biotinylated goat-derived anti-rabbit immunoglobulin G (IgG), Vector Laboratories, Burlingame, Calif., USA]. Then, the sections were rinsed, the signals were visualized with Vectastain ABC Reagent (Vector Laboratories), and diaminobenzidine staining (DAB, Vector Laboratories) was applied. In addition, the sections were contrast stained with hematoxylin (Muto Pure Chemicals, Tokyo, Japan).

Akt = test: Western blotting, phosphorylation of Akt in synovial MSCs; assay type: cell-based, human; conditions: FIG. 5F
Description: Synovial MSCs were seeded in 6 cm dishes to reach a cell count of 2×10^5, and cultured in normal growth medium for 1 day. The medium was replaced with fresh medium with reduced amount of FBS (MEM-alpha, 0.5% FBS and antibiotics) and cultured for one more day. The cells were treated with rh Activin A and/or PDGF-AA (amount 3 times the ED50) for up to 30 minutes. Then, those cells were lysed with cell lysis buffer (#9803S; Cell Signaling Technology, MA) to prepare total cell lysate.
Western blotting was performed as described in Uomizu, M. et al, J Med Dent Sci. vol. 65, pp. 73 to 82. The antibodies used were purchased from Cell Signaling Technology (phospho-p44/42 (#4370), p44/42 (#9102), phospho-Akt (#9271), and Akt (#9272)).

Wistar rats = test: MIA-induced arthritis rat model, incapacitance test; assay type: in vivo; conditions: intra-articular at day 14 after MIA (400 ng/30 uL in PBS), vs control group; FIG. 9B
Description: Wistar rats (Charles River, Japan) aged 10 weeks and weighing 330 to 345 g were used for this study. The rats were divided into two groups (those to be injected with Activin A after injection of mono-iodoacetic acid (MIA), and those to be injected with vehicle after injection of MIA (control)), and subjected to the following experiments.
First, the rats were anesthetized by isoflurane inhalation, and 30 μL of physiological saline containing 1.0 mg MIA was injected into the left knee joint as described in Hoshino T. et al, BMC Musculoskelet Disord., 2018, 19(1): 291. Then, at day 14 after MIA injection, 30 μL of recombinant human Activin A (400 ng/30 μL in PBS) or PBS only as a vehicle was injected. Then, pain avoidance behavior (load asymmetry) between the left limb (MIA-injected side) and the right limb (MIA-uninjected side) was evaluated at day 0 (before injection) and days 1, 3, 7, 14, 17, 19, 21, 24, and 28 after injection.
Load asymmetry was detected by using an incapacitance tester (Linton Instrumentation, Norfolk, UK) with rats in its prismatic Plexiglas case, and the left and right hindlimbs placed on independent force plates. […]
Then, the change from the difference in the percentage of load before administration was then evaluated over time. […]

“Activin A: homodimer of two inhibin βA chains; recombinant human protein purchased from R&D Systems” was tested, and the “regenerated meniscus tissue (histology)” value (C57BL/6J mice; 42 ng/knee intra-articular on day 7, 10 days after resection, FIG. 7A) was “more uniform regenerated meniscus tissue, was induced”, the “staining property of safranin O (proteoglycans)” value (C57BL/6J mice; 10 days after resection, vs control and PDGF groups, FIG. 7A) was “enhanced” and the “regenerated meniscus tissue (histology)” value (C57BL/6J mice; 21 days after resection (day 14 after administration), FIG. 7B) was “uniform regeneration of cartilage-like tissue was observed”. For the same substance, the “expression of type II collagen” value (C57BL/6J mice; 21 days after resection, FIG. 7B) was “Uniform expression”, the “regenerated meniscus tissue (histology)” value (C57BL/6J mice; 56 days after resection (day 49 after administration), FIG. 7C) was “formation of bone marrow-like tissue” and the “regenerated meniscus tissue (histology)” value (C57BL/6J mice; 84 days after resection (day 77 after administration), FIG. 7D) was “regenerated tissue image very close to that of a normal meniscus”. For the same substance, the “meniscus regeneration process, modified Pauli's score” value (C57BL/6J mice; day 10, 21, 56 and 84 after meniscectomy, FIG. 7E) was “significantly accelerated”, the “vascular invasion in the regenerated region” value (C57BL/6J mice; intra-articular on day 7, 10 days after resection, FIG. 7A) was “almost completely suppressed” and the “osteoinduction in regenerated tissues” value (C57BL/6J mice; regenerated tissues administered with activin) was “no osteoinduction was observed”. For the same substance, the “phosphorylation of Akt” value (Akt; Activin A alone, MSCs serum-starved 24 hours, within 30 minutes) was “not detected”, the “phosphorylation of Akt by PDGF” value (Akt; Activin A together with PDGF-AA) was “enhanced” and the “load on MIA-injected hindlimb (pain avoidance behavior)” value (Wistar rats) was “significant improvement”.
